According to patent US9085605B2, “Chemical synthesis and anti-tumor and anti-metastatic effects of dual functional conjugate” (Shenzhen Salubris Pharmaceuticals Co., Ltd., priority 2010, dated 2015):
“And” between values parts separate entries of the source, which are not always exact repeats. Equal entries are not always repeated. “Also recorded” adds a separate entry of the source. Where two headings read alike, the source gives them in different places. Marks after values point to notes of the source that are not given here.

How the values were obtained:
lewis lung cancer [1] = conditions: 10 mg/kg i.p. once daily
Method: C57Bl/6 mice with lewis lung cancer were sacrificed and the tumor was removed. The tumor cell suspension (5×10^6 cell/mL) was prepared in a sterile condition. The suspension (0.2 mL/mice, 1×10^6 tumor cell) was inoculated subcutaneously into the axillary of 24 C57Bl/6 mice. […] From the 7th day after the implantation, the long diameter and short diameter of tumor was measured every 2 days. Tumor volume was calculated by the formula (½)×long diameter×short diameter^2. Drug was withdrawn on the eighteenth day after the implantation. All mice were then sacrificed and the body weight was measured. The tumors, spleen and lung were removed and weighed. The lungs were fixed in Bouin's fixative for 24 h. The numbers of lung metastasis nodule were counted, and the statistics was evaluated by Mann-Whitney U test.

[2] = system: human breast cancer line MDA-MB-231; experiment: Tumor growth inhibition in nude mice xenograft model, MDA-MB-231
Method: • 1. […] Drug administration dose were set as: 10 mg/kg, 15 mg/kg, and 20 mk/kg, drug administration volume was 0.2 mL/20 g. • 2. […] MDA [Peptide (P) 0.54 mg/mL (0.001M), Example 10], a colorless and clear liquid, was prepared by the commission, can be directly used after the repackaging in a sterile condition, stored at 4° C. […] Certificate NO. […] SYSK (BeiJing) 2004-0001. Experiment Methods:
The mice were divided into groups and administrated drug after 11 days.
The mice were divided into eight groups, each group had 6-8 mice. The groups contained Negative control. […] After grouping, all mice were administrated with drug by intraperitoneal injection once a day depends on their body weight.
Other groups were administered with drugs for 24 times successively. The experiment was completed 24 h after the last administration.
The mice were sacrificed, and tumors were isolated and their weight was measured, and the inhibition rate of tumor growth by drugs were calculated. […] Calculation methods and formula were omitted.

[3] = system: Mice breast cancer cell line (4T1, ATCC CRL2539)
Method: Mice breast cancer cell line (4T1, ATCC CRL2539) was a generous gift from Prof. Wei Liang of the Institute of biophysics, Chinese Academy of Sciences. The cell was cultured in the 1640 medium (Gibco) containing 10% fetal bovine serum (FBS), 1% glutamine and 1% penicillin.
4T1 cells in logarithmic phase were collected and the concentration was adjusted to 2×10^6/mL. 4T1 tumors were introduced in female BALB/c mice by injecting subcutaneously into the fourth fat pad area of the right abdominal mammary gland with the dose of 2×10^5/0.1 mL. […] From the 9th day after implantation, tumor growth was measured every 2 days with vernier calipers for determining the long diameter and short diameter of tumor. Tumor volume was calculated by the formula (½)×long diameter×short diameter^2. Drug was withdrawn on the twenty-eight days after the implantation, all mice were then sacrificed and the body weight were measured. The tumors, spleen and lung were removed and weighed. The lungs were fixed in Bouin's fixative for 24 h. The numbers of lung metastasis nodule were counted, the statistics was evaluated using Mann-Whitney U test.

Human lung cancer A549 = experiment: Xenograft tumor nude mice screening, A549; format: in vivo, BALB/c nu mice
Method: (§1) Certificate NO. SCXK (BeiJing) 2005-0013. • Cell lines: The tumor cell lines were passaged and cultured by our Lab, some of them was obtained from ATCC. • The tumor cell lines included: Human breast cancer MX-1 and MCF-7. • Human ovarian cancer A2780, and clear Human ovarian cell cancer ES-2, • Human lung cancer H1975 and A549. Experiment Method: • 1. […] The administration dose and treatment progress was determined based from the preliminary experiments, which had solid effects and the shortest treatment period—the dose of 30 mg/kg/day, and the administration duration time of every lot experiment was not more than 12 days.

[4] = system: 60 human tumor cell lines; experiment: NCI screening of antitumor activity in vitro in 60 human tumor cell lines; format: cell-based
Excerpt: The experimental results refer to FIGS. 1-12.

Human lung cancer H1975 = experiment: Xenograft tumor nude mice screening, H1975; format: in vivo, BALB/c nu mice; conditions: 30 mg/kg × 12, i.p.
Method: as §1

lewis lung cancer [5] = experiment: Anti-artificial metastasis on Lewis lung cancer in mice (intravenous inoculation); format: in vivo, C57Bl/6 mice
Method: The suspension (0.2 mL/mice, 3×10^5 tumor cell) was inoculated intravenously into the tails of fifty C57Bl/6 mice. […] The tumors, spleen and lung were removed and weighed.

[6] = system: Human breast cancer MCF-7; experiment: Xenograft tumor nude mice screening, MCF-7; format: in vivo, BALB/c nu mice
Method: as §1

[7] = 30 mg/kg × 12, i.p. once a day, then withdrawn, larger starting tumors

Structure (SMILES): CC(=O)O[C@H]1C(=O)[C@@]2(C)[C@H]([C@H](OC(=O)c3ccccc3)[C@]3(O)C[C@H](OC(=O)[C@H](OC(=O)CCC(=O)NCCCCC(NC(=O)CC[C@H](NC(=O)C(C)NC(=O)/C=C/c4ccc(Cl)cc4)C(N)=O)C(N)=O)[C@@H](NC(=O)c4ccccc4)c4ccccc4)C(C)=C1C3(C)C)[C@]1(OC(C)=O)CO[C@@H]1C[C@@H]2O (some centres unmarked) [MTC-220]
- Lung weight (lewis lung cancer [1]): 152 ± 37 mg
- Toxic and side effect (lewis lung cancer [1]): no toxic and side effect
- Body weight Beginning ([2]; 10 mg/kg × 24, i.p. once a day): 17.4 ± 1.47 g
- Body weight End ([2]; 10 mg/kg × 24, i.p. once a day): 20.6 ± 1.64 g
- RTV ([2]; 10 mg/kg × 24, i.p. once a day): 12.62 ± 5.924
- T/C ([2]; 10 mg/kg × 24, i.p. once a day): 70.0%
- TGI ([2]; 10 mg/kg × 24, i.p. once a day): 37.3%
- Tumor volume Beginning ([2]; 10 mg/kg × 24, i.p. once a day): 135 ± 70.6 mm^3
- Tumor volume End ([2]; 10 mg/kg × 24, i.p. once a day): 1655 ± 929.4 mm^3
- Tumor weight ([2]; 10 mg/kg × 24, i.p. once a day): 1.78 ± 1.016 g
- Body weight increase compared to the beginning of the grouping ([2]; 15 mg/kg × 24, end of the experiment): 2.7 g
- Body weight Beginning ([2]; 15 mg/kg × 24, i.p. once a day): 17.9 ± 0.88 g
- Body weight End ([2]; 15 mg/kg × 24, i.p. once a day): 20.6 ± 0.91 g
- RTV ([2]; 15 mg/kg × 24, i.p. once a day): 7.12 ± 4.064
- T/C ([2]; 15 mg/kg × 24, i.p. once a day): 39.5% and 37.5% and 39.49%
- TGI ([2]; 15 mg/kg × 24, i.p. once a day): 57.4%
- Tumor volume Beginning ([2]; 15 mg/kg × 24, i.p. once a day): 148 ± 80.5 mm^3
- Tumor volume End ([2]; 15 mg/kg × 24, i.p. once a day): 967 ± 590.4 mm^3
- Tumor weight ([2]; 15 mg/kg × 24, i.p. once a day): 1.21 ± 0.813 g
- Body weight increase compared to the beginning of the grouping ([2]; 20 mg/kg × 24, end of the experiment): 1.9 g
- Body weight Beginning ([2]; 20 mg/kg × 24, i.p. once a day): 17.0 ± 1.11 g
- Body weight End ([2]; 20 mg/kg × 24, i.p. once a day): 18.9 ± 1.58 g
- RTV ([2]; 20 mg/kg × 24, i.p. once a day): 4.58 ± 2.456
- T/C ([2]; 20 mg/kg × 24, i.p. once a day): 25.40%
- TGI ([2]; 20 mg/kg × 24, i.p. once a day): 72.2%
- Tumor volume Beginning ([2]; 20 mg/kg × 24, i.p. once a day): 133 ± 57.6 mm^3
- Tumor volume End ([2]; 20 mg/kg × 24, i.p. once a day): 642 ± 482.3 mm^3
- Tumor weight ([2]; 20 mg/kg × 24, i.p. once a day): 0.79 ± 0.654 g
- Body weight increase compared to the beginning of the grouping ([2]; 30 mg/kg × 12, end of the experiment): 2.6 g
- Body weight Beginning [2, 7]: 17.5 ± 1.09 g
- Body weight End [2, 7]: 20.1 ± 0.98 g
- RTV [2, 7]: 1.11 ± 1.366
- T/C [2, 7]: 6.16%
- TGI [2, 7]: >87.0%
- Tumor volume Beginning [2, 7]: 340 ± 58.4 mm^3
- Tumor volume End [2, 7]: 391 ± 480.5 mm^3
- Tumor weight [2, 7]: 0.37 ± 0.413 g
- Lung weight ([3]; 2.5 mg/kg i.p. once daily): 153 ± 18 mg
- Lung weight ([3]; 5.0 mg/kg i.p. once daily): 160 ± 15 mg
- Toxic and side effects ([3]; 2.5, 5, 10 mg/kg i.p. once daily): no toxic and side effects
- Lung metastasis nodule numbers compared to vehicle control (in words) ([3]; 2.5, 5, 10 mg/kg, p<0.01, dose dependent): significantly decreased
- Body weight Beginning (Human lung cancer A549; 30 mg/kg × 12, i.p.): 25.2 ± 1.31 g
- Body weight End (Human lung cancer A549; 30 mg/kg × 12, i.p.): 26.3 ± 1.51 g
- RTV (Human lung cancer A549; 30 mg/kg × 12, i.p.): 0.67 ± 0.411
- Tumor volume Beginning (Human lung cancer A549; 30 mg/kg × 12, i.p.): 95 ± 27.7 mm^3
- Tumor volume End (Human lung cancer A549; 30 mg/kg × 12, i.p.): 74 ± 55.2 mm^3
- Tumor weight (Human lung cancer A549; 30 mg/kg × 12, i.p.): 0.062 ± 0.041 g
- Death (Human lung cancer A549; 30 mg/kg/day, after drug withdrawal): one mouse died one week after drug withdrawal
- Tumor observation (in words) (Human lung cancer A549; 30 mg/kg/day, during the administration): became smaller and smaller, but didn't disappear
- 50% growth inhibition (GI50) activity [4]: in the same magnitude range as paclitaxel
- Body weight Beginning (Human lung cancer H1975): 24.1 ± 1.20 g
- Body weight End (Human lung cancer H1975): 26.6 ± 0.76 g
- RTV (Human lung cancer H1975): 0.66 ± 0.464
- Tumor volume Beginning (Human lung cancer H1975): 135 ± 50.6 mm^3
- Tumor volume End (Human lung cancer H1975): 127 ± 106.1 mm^3
- Tumor weight (Human lung cancer H1975): 0.13 ± 0.103 g
- Body weight (lewis lung cancer [5]; 2.5 mg/kg i.p.): 19.0 ± 1.9 g
- Lung weight (lewis lung cancer [5]; 2.5 mg/kg i.p.): 334 ± 217 mg
- Body weight (lewis lung cancer [5]; 5 mg/kg i.p.): 18.4 ± 2.3 g
- Lung weight (lewis lung cancer [5]; 5 mg/kg i.p.): 492 ± 353 mg
- Lung weight (lewis lung cancer [5]; 10 mg/kg i.p.): 393 ± 326 mg
- Lung metastasis nodule number compared to vehicle control (in words) (lewis lung cancer [5]; 2.5, 5, 10 mg/kg, dose dependent): significantly decreased
- Body weight Beginning ([6]; 30 mg/kg × 12, i.p.): 20.8 ± 1.14 g
- Body weight End ([6]; 30 mg/kg × 12, i.p.): 23.3 ± 1.22 g
- RTV ([6]; 30 mg/kg × 12, i.p.): 0**
- T/C ([6]; 30 mg/kg × 12, i.p.): 0%
- TGI ([6]; 30 mg/kg × 12, i.p.): 100%
- Tumor volume Beginning ([6]; 30 mg/kg × 12, i.p.): 142 ± 73.5 mm^3
- Tumor volume End ([6]; 30 mg/kg × 12, i.p.): 0 mm^3
- Tumor weight ([6]; 30 mg/kg × 12, i.p.): 0** g
- Tumor observation (in words) ([6]; 30 mg/kg/day, 10 administrations, then withdrawal): disappeared one after another; also recorded: disappeared after successive administration for 10 times
